Source: the NIST ThermoML archive (doi:10.1016/j.jct.2011.08.015)

Experiments:
[1] = for electrical conductivity / viscosity / speed of sound / mass density: 101.33 kPa, Liquid; for electrical conductivity: CRISON model GLP31; for viscosity: Capillary tube (Ostwald / Ubbelohde) method; for speed of sound: Sing-around technique in a fixed-path interferometer; for mass density: Vibrating tube method; for surface tension liquid-gas: Drop volume
[2] = molar heat capacity at constant pressure; conditions: 101.33 kPa, Liquid, Small sample (50 mg) DSC
[3] = refractive index (Na D-line) (dimensionless); conditions: 101.33 kPa, Liquid, Standard Abbe refractometry

CCC[n+]1ccccc1.F[B-](F)(F)F [1-propylpyridinium tetrafluoroborate]
Conditions | electrical conductivity [S/m] | mass density [kg/m3] | molar heat capacity at constant pressure [J/K/mol] | refractive index | speed of sound [m/s] | surface tension liquid-gas [mN/m] | viscosity [mPa·s]
[1], 320.65 K | 1.07 | 1237.1 | – | – | 1589 | – | 40.86
[1], 323.15 K | 1.15 | 1235.33 | – | – | 1583.3 | 49.03 | 36.99
[1], 325.65 K | 1.26 | 1233.58 | – | – | 1577.6 | 48.82 | 33.84
[1], 328.15 K | 1.37 | 1231.82 | – | – | 1572 | 48.7 | 30.72
[1], 330.65 K | 1.48 | 1230.07 | – | – | 1566.3 | 48.46 | 28.09
[1], 333.15 K | 1.6 | 1228.32 | – | – | 1560.7 | 48.3 | 25.81
[1], 335.65 K | 1.73 | 1226.57 | – | – | 1555.1 | 48.1 | 23.78
[1], 338.15 K | 1.87 | 1224.83 | – | – | 1549.5 | 47.86 | 21.97
[2], 278.15 K | – | – | 352 | – | – | – | –
[2], 280.65 K | – | – | 354 | – | – | – | –
[2], 283.15 K | – | – | 355 | – | – | – | –
[2], 285.65 K | – | – | 356 | – | – | – | –
[2], 288.15 K | – | – | 357 | – | – | – | –
[2], 290.65 K | – | – | 359 | – | – | – | –
[2], 293.15 K | – | – | 361 | – | – | – | –
[2], 295.65 K | – | – | 362 | – | – | – | –
[2], 298.15 K | – | – | 363 | – | – | – | –
[2], 300.65 K | – | – | 365 | – | – | – | –
[2], 303.15 K | – | – | 366 | – | – | – | –
[2], 305.65 K | – | – | 367 | – | – | – | –
[2], 308.15 K | – | – | 369 | – | – | – | –
[2], 310.65 K | – | – | 370 | – | – | – | –
[2], 313.15 K | – | – | 372 | – | – | – | –
[2], 315.65 K | – | – | 373 | – | – | – | –
[2], 318.15 K | – | – | 374 | – | – | – | –
[2], 320.65 K | – | – | 376 | – | – | – | –
[2], 323.15 K | – | – | 377 | – | – | – | –
[2], 325.65 K | – | – | 378 | – | – | – | –
[2], 328.15 K | – | – | 380 | – | – | – | –
[2], 330.65 K | – | – | 381 | – | – | – | –
[2], 333.15 K | – | – | 383 | – | – | – | –
[2], 335.65 K | – | – | 384 | – | – | – | –
[2], 338.15 K | – | – | 385 | – | – | – | –
[3], 283.15 K | – | – | – | 1.44855 | – | – | –
[3], 285.65 K | – | – | – | 1.44789 | – | – | –
[3], 288.15 K | – | – | – | 1.44723 | – | – | –
[3], 290.65 K | – | – | – | 1.44655 | – | – | –
[3], 293.15 K | – | – | – | 1.44588 | – | – | –
[3], 295.65 K | – | – | – | 1.44522 | – | – | –
[3], 298.15 K | – | – | – | 1.44455 | – | – | –
[3], 300.65 K | – | – | – | 1.44389 | – | – | –
[3], 303.15 K | – | – | – | 1.44322 | – | – | –
[3], 305.65 K | – | – | – | 1.44256 | – | – | –
[3], 308.15 K | – | – | – | 1.4419 | – | – | –
[3], 310.65 K | – | – | – | 1.44123 | – | – | –
[3], 313.15 K | – | – | – | 1.44057 | – | – | –
[3], 315.65 K | – | – | – | 1.4399 | – | – | –
[3], 318.15 K | – | – | – | 1.43924 | – | – | –
[3], 320.65 K | – | – | – | 1.43859 | – | – | –
[3], 323.15 K | – | – | – | 1.43792 | – | – | –
[3], 325.65 K | – | – | – | 1.43726 | – | – | –
[3], 328.15 K | – | – | – | 1.43659 | – | – | –
[3], 330.65 K | – | – | – | 1.43593 | – | – | –
[3], 333.15 K | – | – | – | 1.43528 | – | – | –
[3], 335.65 K | – | – | – | 1.43463 | – | – | –
[3], 338.15 K | – | – | – | 1.43398 | – | – | –
